Results reported in US20070208087A1, “Compounds, compositions and methods for the treatment of inflammatory diseases” (priority 2001, published 2007).
“And” between values parts separate entries of the source, which are not always exact repeats. Equal entries are not always repeated. Where two headings read alike, the source gives them in different places.

Assays:
Assay type in all cases: cell-based
[1] = tested on: Microglial cells; assay: Dose response inhibition of NO release from microglia, 0.5-500 μM (Example 9); conditions: for μM NO release / μM NO release (No LPS average subtracted): 3 replicates
Protocol: This experiment was designed to determine the dose response inhibition of NO release from microglia by bis- and tris-dihydroxyaryl compounds when stimulated with LPS/IFNγ. Earlier experiments have demonostrated that some bis- and tris-dihydroxyaryl compounds are good inhibitors of NO release from microglia. This experiment is designed to determine a dose response for various effective bis- and tris-dihydroxyaryl compounds. Microglial cells were plated into 96 well plates at 1×10^5 cells/ml. At 48 hours, media was exchanged for media containing 10 ng/ml IFNγ and 10 μg/ml LPS and the following compounds 3, 4, 21, 26 and the positive control L-NAME. The doses tested were: 0.5 μM, 1.0 μM, 5.0 μM, 10 μM, 25 μM, 50 μM, 100 μM, 250 μM, and 500 μM. Nitric oxide release was measured after 48 hours using the Griess reaction.

[2] = tested on: microglia; assay: Ranking of NO release inhibition (Example 12); conditions: Microglia, ranking table
Description: The bis- and tris-dihydroxyaryl compounds were ranked in order of effectiveness for the inhibition of NO release as set out in Table 8.

[3] = tested on: Microglial cells; assay: Dose response inhibition of NO release from microglia, 0.75-200 μM (Example 8)
Protocol: This experiment was designed to determine dose response inhibition of NO release from microglia by bis- and tris-dihydroxyaryl compounds when stimulated with LPS/IFNγ. […] This experiment is designed to determine a dose response for various bis- and tris-dihydroxyaryl compounds. Microglial cells were plated into 96 well plates at 1×10^5 cells/ml. […] The doses tested were: 0.75 μM, 1.56 μM, 3.125 μM, 6.25 μM, 12.5 μM, 25 μM, 50 μM, 100 μM and 200 μM. Nitric oxide release was measured after 48 hours using the Griess reaction.

[4] = tested on: EOC 13.31 microglia cells; assay: NO release inhibition in LPS/IFNγ stimulated microglia, concurrent treatment, Griess reaction at 24 hours (Example 6); conditions: for NO release, Avg / inhibition at 50 µM: 24 hours; for inhibition at 50 µM: Microglia
How it was run: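 Confluent EOC 13.31 microglia were given 50 μM compound together with 1 pg/ml LPS plus 1 ng/ml IFNγ, or without stimulation. NO release was quantified spectrophotometrically by Griess reaction 24 hours later.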

[5] = dose 0.5 μM, LPS/IFNγ, 48 hours
[6] = dose 100 μM, LPS/IFNγ, 48 hours
[7] = dose 250 μM, LPS/IFNγ, 48 hours
[8] = dose 500 μM, LPS/IFNγ, 48 hours
[9] = dose 0.75 μM, 48 hours, single replicates
[10] = dose 1.56 μM, 48 hours, single replicates
[11] = dose 3.125 μM, 48 hours, single replicates
[12] = dose 6.25 μM, 48 hours, single replicates
[13] = dose 12.5 μM, 48 hours, single replicates
[14] = dose 25 μM, 48 hours, single replicates
[15] = dose 50 μM, 48 hours, single replicates
[16] = dose 100 μM, 48 hours, single replicates
[17] = dose 200 μM, 48 hours, single replicates

O=C(N[C@@H]1CCCC[C@H]1NC(=O)c1ccc(O)c(O)c1)c1ccc(O)c(O)c1 (relative stereo) [Compound 26, N,N′-bis(3,4-dihydroxybenzoyl)-trans-1,2-diaminocyclohexane]
inhibition at 0.5 µM ([1]; Microglia, 48 h, dose 0.5 μM, NO release, LPS/IFNγ, 48 hours, read-out: Avg % Inhibition): -4.06%
inhibition at 1 µM ([1]; Microglia, 48 h, dose 1 μM, NO release, LPS/IFNγ, 48 hours, read-out: Avg % Inhibition): 0.51%
inhibition at 5 µM ([1]; Microglia, 48 h, dose 5 μM, NO release, LPS/IFNγ): -4.31%
inhibition at 10 µM ([1]; Microglia, 48 h, dose 10 μM, NO release, LPS/IFNγ): -1.01%
inhibition at 25 µM ([1]; Microglia, 48 h, dose 25 μM, NO release, LPS/IFNγ): 6.85%
inhibition at 50 µM ([1]; Microglia, 48 h, dose 50 μM, NO release, LPS/IFNγ): 6.59%
inhibition at 100 µM ([1]; Microglia, 48 h, dose 100 μM, NO release, LPS/IFNγ, 48 hours, read-out: Avg % Inhibition): 16.2%
inhibition at 100 µM ([1]; Microglia, 48 h, dose 100 μM, individual replicates, NO release, LPS/IFNγ, 48 hours, read-out: % inhibition): 17.2%
inhibition at 250 µM ([1]; Microglia, 48 h, dose 250 μM, NO release, LPS/IFNγ, 48 hours, read-out: Avg % Inhibition): 35.2%
inhibition at 250 µM ([1]; Microglia, 48 h, dose 250 μM, individual replicates, NO release, LPS/IFNγ, 48 hours, read-out: % inhibition): 36.3%
inhibition at 500 µM ([1]; Microglia, 48 h, dose 500 μM, NO release, LPS/IFNγ, 48 hours, read-out: Avg % Inhibition): 99.5%
inhibition at 500 µM ([1]; Microglia, 48 h, dose 500 μM, individual replicates, NO release, LPS/IFNγ, 48 hours, read-out: % inhibition): 98.4%
inhibition at 500 µM ([1]; Microglia, 48 h, highest concentration tested (500 μM), 48 hours, read-out: inhibited NO release by): 99%
μM NO release [1, 5]: 21.667 µM and 19.306 µM and 21.111 µM
μM NO release (No LPS average subtracted) [1, 5]: 19.97 µM and 17.61 µM and 19.41 µM
% inhibition ([1]; dose 0.5 μM, individual replicates, NO release, LPS/IFNγ, 48 hours): −9.38% and 3.55% and −6.34%
μM NO release ([1]; dose 1 μM, LPS/IFNγ, 48 hours): 19.722 µM and 19.028 µM and 20.833 µM
μM NO release (No LPS average subtracted) ([1]; dose 1 μM, LPS/IFNγ, 48 hours): 18.02 µM and 17.33 µM and 19.13 µM
% inhibition ([1]; dose 1 μM, individual replicates, NO release, LPS/IFNγ, 48 hours): 1.27% and 5.07% and −4.82%
μM NO release ([1]; dose 5 μM, LPS/IFNγ, 48 hours): 20.000 µM and 21.528 µM and 20.694 µM
μM NO release (No LPS average subtracted) ([1]; dose 5 μM, LPS/IFNγ, 48 hours): 18.30 µM and 19.83 µM and 18.99 µM
% inhibition ([1]; dose 5 μM, individual replicates, NO release, LPS/IFNγ, 48 hours): −0.25% and −8.62%
μM NO release ([1]; dose 10 μM, LPS/IFNγ, 48 hours): 20.139 µM and 19.583 µM and 20.694 µM
μM NO release (No LPS average subtracted) ([1]; dose 10 μM, LPS/IFNγ, 48 hours): 18.44 µM and 17.88 µM and 18.99 µM
% inhibition ([1]; dose 10 μM, individual replicates, NO release, LPS/IFNγ, 48 hours): 2.03%
μM NO release ([1]; dose 25 μM, LPS/IFNγ, 48 hours): 18.194 µM and 18.333 µM and 19.583 µM
μM NO release (No LPS average subtracted) ([1]; dose 25 μM, LPS/IFNγ, 48 hours): 16.49 µM and 16.63 µM and 17.88 µM
% inhibition ([1]; dose 25 μM, individual replicates, NO release, LPS/IFNγ, 48 hours): 9.64% and 8.88% and 2.03%
μM NO release ([1]; dose 50 μM, LPS/IFNγ, 48 hours): 18.333 μM (2×) and 19.583 μM
μM NO release (No LPS average subtracted) ([1]; dose 50 μM, LPS/IFNγ, 48 hours): 16.63 μM (2×) and 17.88 μM
% inhibition ([1]; dose 50 μM, individual replicates, NO release, LPS/IFNγ, 48 hours): 8.88% (2×) and 2.03%
μM NO release [1, 6]: 16.806 μM (2×) and 17.361 μM
μM NO release (No LPS average subtracted) [1, 6]: 15.11 μM (2×) and 15.66 μM
% inhibition ([1]; dose 100 μM, individual replicates, NO release, LPS/IFNγ, 48 hours): 14.20%
μM NO release [1, 7]: 13.333 µM and 13.194 µM and 14.028 µM
μM NO release (No LPS average subtracted) [1, 7]: 11.63 µM and 11.49 µM and 12.33 µM
% inhibition ([1]; dose 250 μM, individual replicates, NO release, LPS/IFNγ, 48 hours): 37.03% and 32.46%
μM NO release [1, 8]: 2.000 µM and 1.500 µM and 1.867 µM
μM NO release (No LPS average subtracted) [1, 8]: 0.30 µM and -0.20 µM and 0.17 µM
% inhibition ([1]; dose 500 μM, individual replicates, NO release, LPS/IFNγ, 48 hours): 101.10% and 99.09%
inhibition at 50 µM [2]: 20%
inhibition at 0.75 µM ([3]; Microglia, 48 h, dose 0.75 μM): -1.78%
inhibition at 1.56 µM ([3]; Microglia, 48 h, dose 1.56 μM): 6%
inhibition at 3.125 µM ([3]; Microglia, 48 h, dose 3.125 μM): 5.78%
inhibition at 6.25 µM ([3]; Microglia, 48 h, dose 6.25 μM, 48 hours, read-out: Avg % Inhibition): 0.428%
inhibition at 12.5 µM ([3]; Microglia, 48 h, dose 12.5 μM, 48 hours, read-out: Avg % Inhibition): 10.1%
inhibition at 12.5 µM ([3]; Microglia, 48 h, dose 12.5 μM, 48 hours, single replicates, read-out: % inhibition): 10.1%
inhibition at 25 µM ([3]; Microglia, 48 h, dose 25 μM, 48 hours, read-out: Avg % Inhibition): 10.1%
inhibition at 25 µM ([3]; Microglia, 48 h, dose 25 μM, 48 hours, single replicates, read-out: % inhibition): 13.3%
inhibition at 50 µM ([3]; Microglia, 48 h, dose 50 μM, 48 hours, read-out: Avg % Inhibition): 19.7%
inhibition at 50 µM ([3]; Microglia, 48 h, dose 50 μM, 48 hours, single replicates, read-out: % inhibition): 19.7%
inhibition at 100 µM ([3]; Microglia, 48 h, dose 100 μM, 48 hours, read-out: Avg % Inhibition): 23.6%
inhibition at 200 µM ([3]; Microglia, 48 h, dose 200 μM, 48 hours, read-out: Avg % Inhibition): 44.5%
inhibition at 200 µM ([3]; Microglia, 48 h, dose 200 μM, 48 hours, single replicates, read-out: % inhibition): 46%
μM NO release Avg ([3]; dose 0.75 μM, 48 hours): 24.756 µM
% inhibition [3, 9]: 1.07% and −4.91% and −1.50%
OD values (printed under head μM NO release) [3, 9]: 0.21 and 0.206 and 0.215
μM NO release [3, 9]: 24.688 µM and 24.063 µM and 25.517 µM
μM NO release Avg ([3]; dose 1.56 μM, 48 hours): 22.865 µM
% inhibition [3, 10]: 9.42% and 2.36% and 6.21%
OD values (printed under head μM NO release) [3, 10]: 0.198 and 0.193 and 0.204
μM NO release [3, 10]: 22.813 µM and 22.031 µM and 23.750 µM
μM NO release Avg ([3]; dose 3.125 μM, 48 hours): 22.917 µM
% inhibition [3, 11]: 8.14% and 2.36%
OD values (printed under head μM NO release) [3, 11]: 0.197 and 0.195 and 0.204
μM NO release [3, 11]: 22.656 µM and 22.344 µM and 23.750 µM
μM NO release Avg ([3]; dose 6.25 μM, 48 hours): 24.219 µM
% inhibition [3, 12]: 3.64% and −2.14% and −0.21%
OD values (printed under head μM NO release) [3, 12]: 0.208 and 0.202 and 0.211
μM NO release [3, 12]: 24.375 µM and 23.438 µM and 24.844 µM
μM NO release Avg ([3]; dose 12.5 μM, 48 hours): 21.875 µM
OD values (printed under head μM NO release) [3, 13]: 0.192
μM NO release [3, 13]: 21.875 µM
μM NO release Avg ([3]; dose 25 μM, 48 hours): 21.875 µM
OD values (printed under head μM NO release) [3, 14]: 0.197 and 0.187 and 0.192
μM NO release [3, 14]: 22.656 µM and 21.094 µM and 21.875 µM
μM NO release Avg ([3]; dose 50 μM, 48 hours): 19.531 µM
% inhibition [3, 15]: 18.42% and 20.99%
OD values (printed under head μM NO release) [3, 15]: 0.175 and 0.177 and 0.179
μM NO release [3, 15]: 19.219 µM and 19.531 µM and 19.844 µM
μM NO release Avg ([3]; dose 100 μM, 48 hours): 18.594 µM
% inhibition [3, 16]: 17.13% and 19.06% and 34.48%
OD values (printed under head μM NO release) [3, 16]: 0.154 and 0.181 and 0.178
μM NO release [3, 16]: 15.938 µM and 20.156 µM and 19.688 µM
μM NO release Avg ([3]; dose 200 μM, 48 hours): 13.490 µM
% inhibition [3, 17]: 40.26% and 47.32%
OD values (printed under head μM NO release) [3, 17]: 0.134 and 0.136 and 0.145
μM NO release [3, 17]: 12.813 µM and 13.125 µM and 14.531 µM
inhibition of NO release, in words ([4]; 50 μM, LPS/IFNγ stimulated microglial cells): very effective inhibitors of NO release
NO release, Avg ([4]; Compound + LPS/IFNγ, 50 μM): 14.8384 µM
NO release, Avg ([4]; Compound Only (without LPS/IFNγ), 50 μM): 0.0000 µM
inhibition at 50 µM ([4]; Compound + LPS/IFNγ, read-out: % inhibition of NO release): 20.3%
inhibition at 50 µM ([4]; Table 2 summary, LPS/IFNγ, read-out: % Inhibition (summary of inhibition of NO release)): 20.3%
